Values quoted from earlier work as cited in patent publication US20250161199A1, “FORMULATION FOR TREATING AND PREVENTING HAIR LOSS” (DR. BARR - MEDICINE AS ART LTD, priority 2023, published 2025).

Test system: androgenic alopecia
Conditions: in vivo

SMILES	time until effect becomes apparent
C[C@]12C=CC(=O)N[C@@H]1CC[C@@H]1[C@@H]2CC[C@]2(C)[C@@H](C(=O)Nc3cc(C(F)(F)F)ccc3C(F)(F)F)CC[C@@H]12 [dutasteride]	only after several months of treatment
CC(C)(C)NC(=O)[C@H]1CC[C@H]2[C@@H]3CC[C@H]4NC(=O)C=C[C@]4(C)[C@H]3CC[C@]12C [finasteride]	only after several months of treatment
